Results published in patent publication US20240409886A1, “CULTURE MEDIUM COMPRISING DIPEPTIDES” (Evonik Operations GmbH, priority 2017, published 2024).
Residues, ends and D or L forms follow the SMILES beside them.

Tested on: antibody-producing Chinese Hamster Ovary (CHO) cell (subclone DG44)
Assay: viable cell density in CHO cell culture with increasing Gln-Asn dipeptide (OFAT)
Type: cell-based
Description: The effect of the Gln-Asn dipeptide on an antibody-producing Chinese Hamster Ovary (CHO) cell (subclone DG44; Life Technologies Corporation, Carlsbad, USA) was investigated using one-factor-at-a-time (OFAT) analysis.
The analysis was based on a comparison of the viable cell density and cell viability in a series of cell cultures, which were conducted at substantially identical culturing conditions, however, with increasing amounts of the Gln-Asn dipeptide in the medium. In order to keep the total amounts of Asn and Gln units (molar basis) in the various culture media constant, the molar concentration of free glutamine and free asparagine was reduced in accordance with the molar amount of the dipeptide added. A series of culture media having increasing amounts of the Gln-Asn dipeptide was prepared by mixing varying amounts of a Base Medium (comprising free Asn and Gln) and a Test Medium (comprising Asn-Gln dipeptide). A commercially available defined cell culture medium (TC-42, TeutoCell AG, Bielefeld, Germany) served as the Base Medium. (Any other suitable cell culture medium could be used.) A Test Medium (TC-42-EVO) was prepared so as to have identical nutrient concentrations compared to the Base Medium, however, instead of free Asn the Test Medium contained an equimolar amount (5.4 mM) of Gin-Asn dipeptide. Furthermore, the free Gln concentration in the Test Medium was set to a value such that the total concentration of Gln units in the Test Medium (i.e., free Gln and dipeptide-Gln) matched the concentration of free Gln in the Base Medium. All other nutrient concentrations in the Test Medium were the same as in the Base Medium. The Base Medium contained 1461.5 mg/l free Gln and 612 mg/l free Asn.
Six cell cultivations were then conducted with media containing varying amounts of the Test Medium and the Base Medium in the following proportions:
All media were set to pH 8.3. Salinity of the culture media was set to 285 mOsmol/kg with NaCl. All cultivations were conducted in on a rotary shaker under identical culture conditions (temperature, humidity, rpm, CO2, etc.), using standard cell culture methods. Three passages of a cell culture are conducted and viable cell density (VCD; 10^6 viable cells/ml) and cell viability (%) was followed in duplicate determinations, using […] determination.
A correlation of the maximum viable cell density (third passage) with the concentration of the dipeptide is observed. The greatest maximum viable cell density is obtained in cultivation #1, i.e., in the cultivation in which all Asn is provided in the form of the Asn-containing dipeptide. The lowest maximum viable cell density is obtained in cultivation #6, i.e., in the cultivation in which all of the Asn in provided as free amino acid. Furthermore, it can be seen that the increased viable cell density is maintained over an extended period of time (day 13 through day 18).

In the case of `NC(=O)CC[C@H](N)C(=O)N[C@@H](CC(N)=O)C(=O)O` [Gln-Asn, L-glutaminyl-L-asparagine] (H-Gln-Asn-OH), the viable cell density (0.3 mM dipeptide (#5), time 0) is reported as 0.285 10^6 cells/ml, the viable cell density (0.3 mM dipeptide (#5), time 0.89) is reported as 0.485 10^6 cells/ml and the viable cell density (0.3 mM dipeptide (#5), time 3.08) is reported as 1.985 10^6 cells/ml. For the same compound, the viable cell density (0.3 mM dipeptide (#5), time 3.71) was 3.325 10^6 cells/ml, the viable cell density (0.3 mM dipeptide (#5), time 4.08) was 0.265 10^6 cells/ml and the viable cell density (0.3 mM dipeptide (#5), time 4.70) was 1.12 10^6 cells/ml. The viable cell density (0.3 mM dipeptide (#5), time 5.69) was 1.555 10^6 cells/ml, the viable cell density (0.3 mM dipeptide (#5), time 6.88) was 3.8 10^6 cells/ml and the viable cell density (0.3 mM dipeptide (#5), time 7.04) was 0.31 10^6 cells/ml. The viable cell density (0.3 mM dipeptide (#5), time 7.80) was 1.17 10^6 cells/ml, the viable cell density (0.3 mM dipeptide (#5), time 8.78) was 2.01 10^6 cells/ml and the viable cell density (0.3 mM dipeptide (#5), time 9.82) was 3.9 10^6 cells/ml. For the same compound, the viable cell density (0.3 mM dipeptide (#5), time 10.99) was 6.065 10^6 cells/ml, the viable cell density (0.3 mM dipeptide (#5), time 12.02) was 8.21 10^6 cells/ml and the viable cell density (0.3 mM dipeptide (#5), time 12.75) was 7.135 10^6 cells/ml. For the same compound, the viable cell density (0.3 mM dipeptide (#5), time 13.89) was 5.13 10^6 cells/ml, the viable cell density (0.3 mM dipeptide (#5), time 14.74) was 5.54 10^6 cells/ml and the viable cell density (0.3 mM dipeptide (#5), time 15.79) was 4.075 10^6 cells/ml. For the same compound, the viable cell density (0.3 mM dipeptide (#5), time 16.89) was 2.775 10^6 cells/ml, the viable cell density (0.3 mM dipeptide (#5), time 18.06) was 1.825 10^6 cells/ml and the viable cell density (0.8 mM dipeptide (#4), time 0) was 0.27 10^6 cells/ml. For the same compound, the viable cell density (0.8 mM dipeptide (#4), time 0.89) was 0.565 10^6 cells/ml, the viable cell density (0.8 mM dipeptide (#4), time 3.08) was 2.285 10^6 cells/ml and the viable cell density (0.8 mM dipeptide (#4), time 3.71) was 3.4 10^6 cells/ml. For the same compound, the viable cell density (0.8 mM dipeptide (#4), time 4.08) was 0.365 10^6 cells/ml, the viable cell density (0.8 mM dipeptide (#4), time 4.70) was 0.665 10^6 cells/ml and the viable cell density (0.8 mM dipeptide (#4), time 5.69) was 1.545 10^6 cells/ml. For the same compound, the viable cell density (0.8 mM dipeptide (#4), time 6.88) was 3.36 10^6 cells/ml, the viable cell density (0.8 mM dipeptide (#4), time 7.04) was 0.32 10^6 cells/ml and the viable cell density (0.8 mM dipeptide (#4), time 7.80) was 1.12 10^6 cells/ml. For the same compound, the viable cell density (0.8 mM dipeptide (#4), time 8.78) was 1.86 10^6 cells/ml, the viable cell density (0.8 mM dipeptide (#4), time 9.82) was 3.6 10^6 cells/ml and the viable cell density (0.8 mM dipeptide (#4), time 10.99) was 6.31 10^6 cells/ml. For the same compound, the viable cell density (0.8 mM dipeptide (#4), time 12.02) was 7.805 10^6 cells/ml, the viable cell density (0.8 mM dipeptide (#4), time 12.75) was 7.545 10^6 cells/ml and the viable cell density (0.8 mM dipeptide (#4), time 13.89) was 5.86 10^6 cells/ml. For the same compound, the viable cell density (0.8 mM dipeptide (#4), time 14.74) was 5.26 10^6 cells/ml, the viable cell density (0.8 mM dipeptide (#4), time 15.79) was 4.065 10^6 cells/ml and the viable cell density (0.8 mM dipeptide (#4), time 16.89) was 3.175 10^6 cells/ml. For the same compound, the viable cell density (0.8 mM dipeptide (#4), time 18.06) was 2.3 10^6 cells/ml, the viable cell density (1.4 mM dipeptide (#3), time 0) was 0.265 10^6 cells/ml and the viable cell density (1.4 mM dipeptide (#3), time 0.89) was 0.495 10^6 cells/ml. The viable cell density (1.4 mM dipeptide (#3), time 3.08) was 1.8 10^6 cells/ml, the viable cell density (1.4 mM dipeptide (#3), time 3.71) was 2.415 10^6 cells/ml and the viable cell density (1.4 mM dipeptide (#3), time 4.08) was 0.315 10^6 cells/ml. The viable cell density (1.4 mM dipeptide (#3), time 4.70) was 0.65 10^6 cells/ml, the viable cell density (1.4 mM dipeptide (#3), time 5.69) was 1.47 10^6 cells/ml and the viable cell density (1.4 mM dipeptide (#3), time 6.88) was 3.365 10^6 cells/ml. The viable cell density (1.4 mM dipeptide (#3), time 7.04) was 0.33 10^6 cells/ml, the viable cell density (1.4 mM dipeptide (#3), time 7.80) was 0.77 10^6 cells/ml and the viable cell density (1.4 mM dipeptide (#3), time 8.78) was 1.615 10^6 cells/ml. For the same compound, the viable cell density (1.4 mM dipeptide (#3), time 9.82) was 2.97 10^6 cells/ml, the viable cell density (1.4 mM dipeptide (#3), time 10.99) was 5.25 10^6 cells/ml and the viable cell density (1.4 mM dipeptide (#3), time 12.02) was 8.29 10^6 cells/ml. For the same compound, the viable cell density (1.4 mM dipeptide (#3), time 12.75) was 9.23 10^6 cells/ml, the viable cell density (1.4 mM dipeptide (#3), time 13.89) was 8.975 10^6 cells/ml and the viable cell density (1.4 mM dipeptide (#3), time 14.74) was 9.58 10^6 cells/ml. The viable cell density (1.4 mM dipeptide (#3), time 15.79) was 9.535 10^6 cells/ml, the viable cell density (1.4 mM dipeptide (#3), time 16.89) was 7.395 10^6 cells/ml and the viable cell density (1.4 mM dipeptide (#3), time 18.06) was 5.985 10^6 cells/ml. The viable cell density (4.3 mM dipeptide (#2), time 0) was 0.27 10^6 cells/ml, the viable cell density (4.3 mM dipeptide (#2), time 0.89) was 0.51 10^6 cells/ml and the viable cell density (4.3 mM dipeptide (#2), time 3.08) was 1.615 10^6 cells/ml. For the same compound, the viable cell density (4.3 mM dipeptide (#2), time 3.71) was 2.13 10^6 cells/ml, the viable cell density (4.3 mM dipeptide (#2), time 4.08) was 0.3 10^6 cells/ml and the viable cell density (4.3 mM dipeptide (#2), time 4.70) was 0.54 10^6 cells/ml. For the same compound, the viable cell density (4.3 mM dipeptide (#2), time 5.69) was 1.545 10^6 cells/ml, the viable cell density (4.3 mM dipeptide (#2), time 6.88) was 3.555 10^6 cells/ml and the viable cell density (4.3 mM dipeptide (#2), time 7.04) was 0.305 10^6 cells/ml. For the same compound, the viable cell density (4.3 mM dipeptide (#2), time 7.80) was 1.045 10^6 cells/ml, the viable cell density (4.3 mM dipeptide (#2), time 8.78) was 1.545 10^6 cells/ml and the viable cell density (4.3 mM dipeptide (#2), time 9.82) was 2.8 10^6 cells/ml. The viable cell density (4.3 mM dipeptide (#2), time 10.99) was 5.115 10^6 cells/ml, the viable cell density (4.3 mM dipeptide (#2), time 12.02) was 7.215 10^6 cells/ml and the viable cell density (4.3 mM dipeptide (#2), time 12.75) was 9.42 10^6 cells/ml. For the same compound, the viable cell density (4.3 mM dipeptide (#2), time 13.89) was 9.645 10^6 cells/ml, the viable cell density (4.3 mM dipeptide (#2), time 14.74) was 9.985 10^6 cells/ml and the viable cell density (4.3 mM dipeptide (#2), time 15.79) was 11.08 10^6 cells/ml. The viable cell density (4.3 mM dipeptide (#2), time 16.89) was 9.195 10^6 cells/ml, the viable cell density (4.3 mM dipeptide (#2), time 18.06) was 8.905 10^6 cells/ml and the viable cell density (5.4 mM dipeptide (#1), time 0) was 0.28 10^6 cells/ml. For the same compound, the viable cell density (5.4 mM dipeptide (#1), time 0.89) was 0.59 10^6 cells/ml, the viable cell density (5.4 mM dipeptide (#1), time 3.08) was 1.38 10^6 cells/ml and the viable cell density (5.4 mM dipeptide (#1), time 3.71) was 1.64 10^6 cells/ml. The viable cell density (5.4 mM dipeptide (#1), time 4.08) was 0.365 10^6 cells/ml, the viable cell density (5.4 mM dipeptide (#1), time 4.70) was 0.56 10^6 cells/ml and the viable cell density (5.4 mM dipeptide (#1), time 5.69) was 1.33 10^6 cells/ml. For the same compound, the viable cell density (5.4 mM dipeptide (#1), time 6.88) was 3.16 10^6 cells/ml, the viable cell density (5.4 mM dipeptide (#1), time 7.04) was 0.335 10^6 cells/ml and the viable cell density (5.4 mM dipeptide (#1), time 7.80) was 0.665 10^6 cells/ml. For the same compound, the viable cell density (5.4 mM dipeptide (#1), time 8.78) was 1.26 10^6 cells/ml, the viable cell density (5.4 mM dipeptide (#1), time 9.82) was 2.67 10^6 cells/ml and the viable cell density (5.4 mM dipeptide (#1), time 10.99) was 3.57 10^6 cells/ml. The viable cell density (5.4 mM dipeptide (#1), time 12.02) was 4.91 10^6 cells/ml, the viable cell density (5.4 mM dipeptide (#1), time 12.75) was 6.415 10^6 cells/ml and the viable cell density (5.4 mM dipeptide (#1), time 13.89) was 8.285 10^6 cells/ml. The viable cell density (5.4 mM dipeptide (#1), time 14.74) was 11.695 10^6 cells/ml, the viable cell density (5.4 mM dipeptide (#1), time 15.79) was 10.075 10^6 cells/ml and the viable cell density (5.4 mM dipeptide (#1), time 16.89) was 7.995 10^6 cells/ml. The viable cell density (5.4 mM dipeptide (#1), time 18.06) was 6.6 10^6 cells/ml and the “maximum viable cell density (third passage)” value (cultivation #1, all Asn provided in the form of the dipeptide (5.4 mM), compared among cultivations #1-6) was “greatest”.
